# Results: patent US20190055231A1, “BACE1 INHIBITORS” (Hoffmann-La Roche Inc., priority 2016, published 2019)
# Columns and labels:
# [1] = system: Aβ40 in brain of wild-type mice; experiment: Mouse acute in vivo model (inhibition of Aβ40 in brain of wild-type mice); settings: 4 h post dose; for Brain Aβ-lowering 30 mg/kg: single p.o. dose 30 mg/kg; for Brain Aβ-lowering 3 mg/kg: single p.o. dose 3 mg/kg; for Brain Aβ-lowering 10 mg/kg: single p.o. dose 10 mg/kg
# Description: Mouse Acute In Vivo Model (Inhibition of Aβ40 in Brain of Wild-Type Mice)
# Single Dose Efficacy in Mice
# The mouse single dose efficacy was measured in brain homogenate from C57Bl/6J wildtype mice after DEA extraction as described in H. Hilpert et al., J. Med. Chem. 2013, 56, 3980-3995 (dx.doi.org/10.1021/jm400225m).
# Aβ 40 concentration was determined after solid phase extraction as described above and following a modified protocol from Perkin-Elmer with a commercially available antibody against the N-terminal part of rat Aβ (252Q6, Invitrogen cat. No. AMB0062) and an in-house C-terminal specific anti-Aβ40 antibody (BAP-24, Brockhaus M. et al., J. Neuroreport, 1998, 9:1481-1486) bound to acceptor beads (PerkinElmer, Cat. 6772002). 20 μl analyte per well (reconstituted extracts or standard) were loaded to a White Optiplate-96 (Perkin-Elmer, Cat#6005290). Then, a mixture of biotinylated BAP24 antibody (1:2000 diluted at approximately 1 nM final concentration) and antibody 252Q6 bound to AlphaLISA acceptor beads (Perkin-Elmer cat. No. 6772002 (1:100 diluted, 10 ug/mL final concentration) in 1× AlphaLISA buffer (Perkin-Elmer, AL000F) was added. After 1 hour room temperature incubation in the dark, 20 uL of a streptavidin coated donor beads dilution (40 μg/mL) were added and incubated for 30 minutes in the dark. Light emission at 615 nm was recorded using an EnVision AlphaScreen Reader (Perkin-Elmer). Levels of Aβ40 were calculated as percentage of the baseline samples from non-treated animals.
# Aβ40 lowering was determined after oral administration in wild-type mice (C57Bl/6J mice, n=3-4) 4 h post dosing. Wild-type mice were used as they have a normal physiological level of APP expression and are thus expected to provide a better physiological model for Aβ-peptide production than APP-transgenic organisms. In vivo efficacy is a key factor for appropriate drug candidates, being more relevant than in vitro activities.
# [2] = molecular target: Mouse P-gp (Mus musculus, UniProt P21447); experiment: P-gp transport assay (mouse); format: in vitro ADME; settings: efflux ratio
# From the text: (§1) P-Gp Transport Assay (Human and Mouse) (P-Gp Assay)
# (§2) In the assay of the P-gp efflux ratio ER as described hereinabove, a compound with ER<2.5 is regarded most suitable. In addition, compounds with low hERG channel binding are suitable as well.
# [3] = molecular target: T1, BACE1 (Homo sapiens, UniProt P56817); experiment: Cellular Aβ-lowering assay (Abeta 40 AlphaLISA, HEK293 APP cells); format: cell-based; parameters: endogenous in cells; host or cells: HEK293 APP cells
# Description: Cellular Aβ-Lowering Assay:
# The Abeta 40 AlphaLISA Assay can be used. The HEK293 APP cells were seeded in 96 well Microtiter plates in cell culture medium (Iscove's, plus 10% (v/v) fetal bovine serum, penicillin/streptomycin) to about 80% confluency and the compounds were added at a 3× concentration in ⅓ volume of culture medium (final DMSO concentration was kept at 1% v/v). After 18-20 hrs incubation at 37° C. and 5% CO2 in a humidified incubator, the culture supernatants were harvested for the determination of AP 40 concentrations using Perkin-Elmer Human Amyloid beta 1-40 (high specificity) Kit (Cat#AL275C).
# In a Perkin-Elmer White Optiplate-384 (Cat#6007290), 2 ul culture supernatants were combined with 2 μl of a 10× AlphaLISA Anti-hAP Acceptor beads+Biotinylated Antibody Anti-Aβ 1-40 Mix (50 μg/mL/5 nM). After 1 hour room temperature incubation, 16 μl of a 1.25× preparation of Streptavidin (SA) Donor beads (25 μg/mL) were added and incubated for 30 minutes in the Dark. Light Emission at 615 nm was then recorded using EnVision-Alpha Reader. Levels of AP 40 in the culture supernatants were calculated as percentage of maximum signal (cells treated with 1% DMSO without inhibitor). The IC50 value were calculated using the Excel XLfit software.
# Cellular Aβ-Lowering Assay (Cell-Based Assay)
# (§3) The determination of BACE1 activity can be either measured by using an enzymatic cell-free fluorescence assay (BACE1 cell free, table 2) or by a whole cell assay using HEK293 APP cells (Cellular Aβ-lowering, table 2). Both assays are suitable to determine BACE1 inhibition.
# [4] = molecular target: T1, BACE1; experiment: BACE1 cell-free assay (BACE1 enzyme assay); format: biochemical
# From the text: BACE1 Cell-Free Assay (BACE1 Enzyme Assay)
# as §3
# [5] = molecular target: T2, BACE2 (Homo sapiens, UniProt Q9Y5Z0); experiment: BACE2 cell-free assay (BACE2 enzyme assay); format: biochemical; settings: BACE2 IC50 divided by BACE1 IC50, cell free assays
# T2 sequence (Q9Y5Z0 63-518): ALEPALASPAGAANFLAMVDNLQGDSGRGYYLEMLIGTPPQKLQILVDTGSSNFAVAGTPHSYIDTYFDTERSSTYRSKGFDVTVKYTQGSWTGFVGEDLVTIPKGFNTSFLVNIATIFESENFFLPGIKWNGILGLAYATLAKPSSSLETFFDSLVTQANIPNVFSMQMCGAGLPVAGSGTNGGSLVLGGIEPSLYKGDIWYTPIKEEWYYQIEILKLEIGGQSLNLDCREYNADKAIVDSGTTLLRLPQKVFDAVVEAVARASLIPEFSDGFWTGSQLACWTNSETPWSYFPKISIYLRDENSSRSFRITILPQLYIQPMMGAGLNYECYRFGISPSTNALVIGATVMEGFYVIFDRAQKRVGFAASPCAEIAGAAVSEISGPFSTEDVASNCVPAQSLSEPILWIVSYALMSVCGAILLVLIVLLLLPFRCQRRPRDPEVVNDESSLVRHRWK
# From the text: BACE2 Cell-Free Assay (BACE2 Enzyme Assay)
# Selectivity versus related targets is important in terms of safety of a drug candidate. BACE2 is a close homolog of BACE1. BACE2 was recently reported to play a crucial role in pigmentation of the skin by processing pigment cell-specific melanocyte protein (PMEL). (Proc Natl Acad Sci USA. 2013 Jun. 25; 110(26):10658-63. doi: 10.1073/pnas.1220748110. Epub 2013 Jun. 10). It is believed that PMEL contributes in melanogenesis. Therefore, selectivity versus BACE2 is advantageous when it comes to pigmentation of the skin. The selectivity ratio of BACE2/BACE1 IC50 was calculated by dividing the BACE2 IC50 value by the BACE1 IC50 value determined each in the cell free assay. […] This implies a 3-fold improvement of example 1 compared to comparators 4 and 5.
# [6] = molecular target: Human P-gp (Homo sapiens, UniProt P08183); experiment: P-gp transport assay (human); format: in vitro ADME; settings: efflux ratio
# From the text: as §1, §2
# [7] = molecular target: hERG channel (Homo sapiens, UniProt Q12809); experiment: hERG IC20 assay; format: cell-based; settings: for IC20: human, hERG IC20 assay
# From the text: The methods to determine the hERG IC20 values was described in Industrializing electrophysiology: HT automated patch clamp on SyncroPatch® 96 using instant frozen cells. Polonchuk L., Methods Mol Biol. 2014; 1183:81-92. (doi: 10.1007/978-1-4939-1096-0_5.) PMID:25023303
# QT prolongation is a cardiovascular risk caused by drug candidates which inhibit the hERG channel (human ether a go-go). A sufficient safety margin between the hERG IC20 value and the free plasma concentration necessary to achieve the envisaged thereapeutic effects is desired (ICH. The nonclinical evaluation of the potential for delayed ventricular repolarization (QT interval prolongation) by human pharmaceuticals (S7B), issued as CPMP/ICH/423/02, adopted by CHMP in May 2005 (http://www.ich.org/cache/compo/276-254-1.html; Redfern W S, Carlsson L, Davis A S, Lynch W G, MacKenzie I, Palethorpe S, Siegl P K, Strang I, Sullivan A T, Wallis R, Camm A J, Hammond T G. Relationships between preclinical cardiac electrophysiology, clinical QT interval prolongation and torsade de pointes for a broad range of drugs: evidence for a provisional safety margin in drug development. Cardiovasc Res. 2003 Apr. 1; 58(1):32-45.)). Reducing the activity against efflux transporters expressed at the blood-brain-barrier such as P-glycoprotein P-gp, might result in reduction of the free plasma concentration by optimizing brain penetration.
# [8] = HEK293 APP cells, Aβ40 in supernatant, read-out: BACE1 cell act. Aβ40 IC50
# hERG channel, sequence (Q12809 whole entry): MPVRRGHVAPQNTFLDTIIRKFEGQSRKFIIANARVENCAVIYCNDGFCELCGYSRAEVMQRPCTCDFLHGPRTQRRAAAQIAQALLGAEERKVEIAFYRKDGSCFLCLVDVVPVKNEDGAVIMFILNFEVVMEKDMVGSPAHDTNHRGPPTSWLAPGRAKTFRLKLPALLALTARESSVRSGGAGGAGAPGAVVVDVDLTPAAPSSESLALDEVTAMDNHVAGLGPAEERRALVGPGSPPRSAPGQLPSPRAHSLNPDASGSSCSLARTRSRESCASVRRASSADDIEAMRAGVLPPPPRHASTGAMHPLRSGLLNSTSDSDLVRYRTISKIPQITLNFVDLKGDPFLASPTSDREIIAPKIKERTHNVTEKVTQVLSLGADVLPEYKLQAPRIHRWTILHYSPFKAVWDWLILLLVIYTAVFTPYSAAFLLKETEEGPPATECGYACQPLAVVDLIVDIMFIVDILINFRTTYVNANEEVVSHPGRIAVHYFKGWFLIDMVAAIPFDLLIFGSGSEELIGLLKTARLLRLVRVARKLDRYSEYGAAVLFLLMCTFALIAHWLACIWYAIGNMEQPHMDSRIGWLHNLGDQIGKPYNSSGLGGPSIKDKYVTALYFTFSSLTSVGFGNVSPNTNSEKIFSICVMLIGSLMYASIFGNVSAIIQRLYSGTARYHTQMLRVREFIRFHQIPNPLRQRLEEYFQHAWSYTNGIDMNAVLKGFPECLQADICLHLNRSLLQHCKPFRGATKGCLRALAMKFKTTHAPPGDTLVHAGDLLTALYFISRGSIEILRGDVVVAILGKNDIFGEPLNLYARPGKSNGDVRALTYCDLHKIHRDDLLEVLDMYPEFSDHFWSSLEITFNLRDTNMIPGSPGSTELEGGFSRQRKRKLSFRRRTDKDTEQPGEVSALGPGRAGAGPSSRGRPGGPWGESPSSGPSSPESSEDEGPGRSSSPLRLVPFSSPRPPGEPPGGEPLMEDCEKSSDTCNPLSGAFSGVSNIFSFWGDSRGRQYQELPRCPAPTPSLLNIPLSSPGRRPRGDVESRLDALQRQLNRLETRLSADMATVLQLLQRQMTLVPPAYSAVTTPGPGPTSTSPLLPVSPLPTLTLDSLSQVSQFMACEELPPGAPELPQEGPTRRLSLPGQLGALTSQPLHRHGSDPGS
# Mouse P-gp, sequence (P21447 whole entry): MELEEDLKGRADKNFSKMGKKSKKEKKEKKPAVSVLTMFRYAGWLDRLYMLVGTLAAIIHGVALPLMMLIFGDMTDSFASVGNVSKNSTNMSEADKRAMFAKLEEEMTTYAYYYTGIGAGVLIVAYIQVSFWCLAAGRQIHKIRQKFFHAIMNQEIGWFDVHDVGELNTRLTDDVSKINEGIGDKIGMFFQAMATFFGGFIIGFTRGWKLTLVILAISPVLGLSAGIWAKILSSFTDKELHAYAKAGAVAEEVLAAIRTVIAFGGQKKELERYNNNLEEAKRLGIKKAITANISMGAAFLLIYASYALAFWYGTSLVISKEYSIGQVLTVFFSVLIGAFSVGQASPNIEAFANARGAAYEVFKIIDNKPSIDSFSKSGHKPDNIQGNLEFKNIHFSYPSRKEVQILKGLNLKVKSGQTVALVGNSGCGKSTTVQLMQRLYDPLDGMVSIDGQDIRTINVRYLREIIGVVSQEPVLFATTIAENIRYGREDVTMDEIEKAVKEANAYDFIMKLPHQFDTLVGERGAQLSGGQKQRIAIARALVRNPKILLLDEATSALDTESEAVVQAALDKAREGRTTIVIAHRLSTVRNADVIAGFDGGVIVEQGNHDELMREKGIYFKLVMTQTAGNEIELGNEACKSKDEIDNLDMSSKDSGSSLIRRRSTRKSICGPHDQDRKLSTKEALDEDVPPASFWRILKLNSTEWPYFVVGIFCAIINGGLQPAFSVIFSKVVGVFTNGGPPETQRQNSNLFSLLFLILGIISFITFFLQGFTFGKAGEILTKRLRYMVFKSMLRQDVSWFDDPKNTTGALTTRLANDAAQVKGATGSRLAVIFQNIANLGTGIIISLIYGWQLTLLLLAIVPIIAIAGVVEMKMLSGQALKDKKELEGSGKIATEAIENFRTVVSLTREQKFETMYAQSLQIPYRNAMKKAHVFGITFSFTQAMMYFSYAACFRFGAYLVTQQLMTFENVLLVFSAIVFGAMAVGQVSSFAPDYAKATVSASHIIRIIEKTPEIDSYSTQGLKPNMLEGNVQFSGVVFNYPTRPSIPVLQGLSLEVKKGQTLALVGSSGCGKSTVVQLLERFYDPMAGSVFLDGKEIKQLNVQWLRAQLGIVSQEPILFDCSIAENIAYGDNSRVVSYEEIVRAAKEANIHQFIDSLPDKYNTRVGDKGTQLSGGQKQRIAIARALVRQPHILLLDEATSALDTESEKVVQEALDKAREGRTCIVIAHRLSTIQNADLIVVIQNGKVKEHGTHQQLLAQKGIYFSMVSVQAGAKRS
# T1 sequence (P56817 46-501): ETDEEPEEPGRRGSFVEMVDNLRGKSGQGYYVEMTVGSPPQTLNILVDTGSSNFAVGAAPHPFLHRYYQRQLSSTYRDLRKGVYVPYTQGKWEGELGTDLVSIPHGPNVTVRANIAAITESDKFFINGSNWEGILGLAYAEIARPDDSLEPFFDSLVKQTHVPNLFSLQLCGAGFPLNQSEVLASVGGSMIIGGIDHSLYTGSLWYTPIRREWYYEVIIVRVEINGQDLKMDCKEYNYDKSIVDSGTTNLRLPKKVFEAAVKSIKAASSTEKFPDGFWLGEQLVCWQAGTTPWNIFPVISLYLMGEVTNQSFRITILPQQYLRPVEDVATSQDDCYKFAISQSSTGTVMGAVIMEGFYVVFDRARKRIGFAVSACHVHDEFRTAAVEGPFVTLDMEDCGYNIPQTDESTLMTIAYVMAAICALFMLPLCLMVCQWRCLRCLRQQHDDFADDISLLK
# Human P-gp, sequence (P08183 whole entry): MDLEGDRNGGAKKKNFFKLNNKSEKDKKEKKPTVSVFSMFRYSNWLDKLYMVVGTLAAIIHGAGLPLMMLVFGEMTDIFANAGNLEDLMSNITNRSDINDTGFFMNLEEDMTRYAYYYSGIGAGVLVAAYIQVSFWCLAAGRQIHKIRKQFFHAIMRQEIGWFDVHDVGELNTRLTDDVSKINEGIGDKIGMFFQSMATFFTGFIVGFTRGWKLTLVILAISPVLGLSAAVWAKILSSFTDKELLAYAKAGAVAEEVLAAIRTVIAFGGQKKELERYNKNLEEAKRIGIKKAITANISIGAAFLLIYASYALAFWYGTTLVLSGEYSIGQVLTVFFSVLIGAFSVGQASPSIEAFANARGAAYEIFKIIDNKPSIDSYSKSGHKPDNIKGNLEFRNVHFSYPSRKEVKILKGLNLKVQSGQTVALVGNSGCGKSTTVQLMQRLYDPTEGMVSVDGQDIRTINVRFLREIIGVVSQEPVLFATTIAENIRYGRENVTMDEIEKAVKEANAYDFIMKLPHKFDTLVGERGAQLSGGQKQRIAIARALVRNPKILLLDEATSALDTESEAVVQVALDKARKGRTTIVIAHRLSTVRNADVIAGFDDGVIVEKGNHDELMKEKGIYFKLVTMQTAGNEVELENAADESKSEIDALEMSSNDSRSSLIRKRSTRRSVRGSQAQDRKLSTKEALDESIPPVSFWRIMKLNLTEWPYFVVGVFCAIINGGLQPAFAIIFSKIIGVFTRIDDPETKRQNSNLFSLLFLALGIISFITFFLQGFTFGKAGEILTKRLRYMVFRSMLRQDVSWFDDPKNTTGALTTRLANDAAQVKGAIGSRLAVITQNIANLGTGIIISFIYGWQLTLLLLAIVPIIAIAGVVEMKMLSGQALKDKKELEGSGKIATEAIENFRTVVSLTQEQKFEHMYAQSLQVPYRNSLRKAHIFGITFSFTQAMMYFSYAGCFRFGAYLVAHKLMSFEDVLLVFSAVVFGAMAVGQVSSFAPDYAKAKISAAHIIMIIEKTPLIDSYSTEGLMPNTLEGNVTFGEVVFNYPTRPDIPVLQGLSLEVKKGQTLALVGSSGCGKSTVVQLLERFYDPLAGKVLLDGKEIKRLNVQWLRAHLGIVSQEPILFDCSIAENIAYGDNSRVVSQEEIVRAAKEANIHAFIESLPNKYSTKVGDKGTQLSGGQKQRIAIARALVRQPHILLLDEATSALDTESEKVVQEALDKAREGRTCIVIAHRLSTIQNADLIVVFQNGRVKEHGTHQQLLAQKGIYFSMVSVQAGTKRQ
Compound,Mouse P-gp ER [2],"IC50 [3, 8] [nM]",IC50 [4] [nM],BACE2/BACE1 IC50 ratio [5],Human P-gp ER [6],IC50 ([3]; read-out: cellular potency) [nM],Brain Aβ-lowering 30 mg/kg [1] [%],Brain Aβ-lowering 3 mg/kg [1] [%],Brain Aβ-lowering 10 mg/kg [1] [%],"IC20 ([7]; instant frozen cells (hERG channel, automated patch clamp)) [nM]",IC20 [7] [nM],Brain Aβ-lowering 3 mg/kg ([1]; listed as comparator 5) [%],higher affinity to hERG than example 1 [7] [fold]
C[C@]1(c2nc(NC(=O)c3ccc(C#N)cn3)ccc2F)N=C(N)O[C@@H](C(F)(F)F)[C@@H]1F [Comparator 7],–,–,–,–,–,–,70,–,–,–,–,–,–
"Cc1cc(C#N)cnc1C(=O)Nc1ccc(F)c([C@@]2(C)N=C(N)O[C@H](C(F)(F)F)C2(F)F)n1 [Comparator 2, N-(6-((4R,6S)-2-Amino-5,5-difluoro-4-methyl-6-(trifluoromethyl)-5,6-dihydro-4H-1,3-oxazin-4-yl)-5-fluoropyridin-2-yl)-5-cyano-3-methylpicolinamide]",1.4,203,19,3.0,–,–,–,10,42,–,–,–,–
"C[C@]1(c2nc(NC(=O)c3ccc(C#N)cn3)ccc2F)N=C(N)O[C@H](C(F)(F)F)C1(F)F [Comparator 1, N-(6-((4R,6S)-2-Amino-5,5-difluoro-4-methyl-6-(trifluoromethyl)-5,6-dihydro-4H-1,3-oxazin-4-yl)-5-fluoropyridin-2-yl)-5-cyanopicolinamide]",1.3,324,29,3.0,1.4,–,66,2,4,–,–,–,–
"C[C@]1(c2nc(NC(=O)c3ccc(C#N)cn3)ccc2F)N=C(N)O[C@@H](C(F)(F)F)C1(F)F [Comparator 3, N-(6-((4R,6R)-2-Amino-5,5-difluoro-4-methyl-6-(trifluoromethyl)-5,6-dihydro-4H-1,3-oxazin-4-yl)-5-fluoropyridin-2-yl)-5-cyanopicolinamide]",–,37400,–,–,–,> 35000,–,–,–,–,–,–,–

# More lines, main results first:
Mouse P-gp ER [2],"IC50 [3, 8] [nM]",IC50 [4] [nM],BACE2/BACE1 IC50 ratio [5],Human P-gp ER [6],IC50 ([3]; read-out: cellular potency) [nM],Compound,Brain Aβ-lowering 30 mg/kg [1] [%],Brain Aβ-lowering 3 mg/kg [1] [%],Brain Aβ-lowering 10 mg/kg [1] [%],"IC20 ([7]; instant frozen cells (hERG channel, automated patch clamp)) [nM]",IC20 [7] [nM],Brain Aβ-lowering 3 mg/kg ([1]; listed as comparator 5) [%],higher affinity to hERG than example 1 [7] [fold]
–,4,33,–,–,–,C[C@@]1(c2nc(NC(=O)c3ccc(C#N)cn3)ccc2F)C[C@@H](C(F)(F)F)OC(N)=N1 [Comparator 4],–,–,–,40,40,–,–
8.1,–,–,–,3.3,–,Cc1cc(C#N)cnc1C(=O)Nc1ccc(F)c([C@]2(C)C[C@@H](C(F)(F)F)OC(N)=N2)n1 [Comparator 5],–,7,70,–,440,7,5.3
